From ChEMBL document CHEMBL1130994, “3-trifluoromethylcarbacephems: synthesis of broad spectrum antibacterial compounds” (1998)
Values after ≈ are worked out from the molar mass of the structure shown.

Assays:
Klebsiella aerogenes [1] = assay: Compound was evaluated for inhibitory activity against C32 Enterobacter aerogenes; format: functional
Providencia rettgeri [2] = assay: Compound was evaluated for inhibitory activity against C24 Providencia rettgeri; format: functional
Haemophilus influenzae [3] = assay: Compound was evaluated for inhibitory activity against C.L Haemophilus influenzae ampicillin sensitive; format: functional
Staphylococcus aureus [4] = assay: Compound was evaluated for inhibitory activity against X1.1 Staphylococcus aureus penicillin sensitive; format: functional
Klebsiella pneumoniae [5] = assay: Compound was evaluated for inhibitory activity against KAE Klebsiella pneumoniae; format: functional
Staphylococcus aureus [6] = assay: Compound was evaluated for inhibitory activity against S13E Staphylococcus aureus methicillin resistant penicillin resistant macrolide sensitive (PBP2a producer); format: functional
Serratia [7] = assay: Compound was evaluated for inhibitory activity against X99 Serratia; format: functional
Salmonella [8] = assay: Compound was evaluated for inhibitory activity against X514 Salmonella; format: functional
Enterococcus faecalis [9] = assay: Compound was evaluated for inhibitory activity against 2041 Enterococcus faecalis Gp.D streptococcus penicillin susceptible; format: functional
Klebsiella aerogenes [10] = assay: Compound was evaluated for inhibitory activity against EB17 Enterobacter aerogenes; format: functional
Streptococcus pneumoniae [11] = assay: Compound was evaluated for inhibitory activity against Park S Streptococcus pneumoniae; No growth; format: functional, organism-based
Morganella morganii [12] = assay: Compound was evaluated for inhibitory activity against PR15 Morganella morganii; format: functional
Citrobacter [13] = assay: Compound was evaluated for inhibitory activity against CF17 Citrobacter; format: functional
Escherichia coli [14] = assay: Compound was evaluated for inhibitory activity against TEM Escherichia coli beta-lactamase; format: functional
Enterobacter cloacae [15] = assay: Compound was evaluated for inhibitory activity against EB5 Enterobacter cloacae; format: functional
Acinetobacter [16] = assay: Compound was evaluated for inhibitory activity against AC12 Acinetobacter; format: functional
Staphylococcus aureus [17] = assay: Compound was evaluated for inhibitory activity against X400S Staphylococcus aureus methicillin resistant and macrolide resistant; format: functional
Serratia [18] = assay: Compound was evaluated for inhibitory activity against SE3 Serratia; format: functional
Providencia stuartii [19] = assay: Compound was evaluated for inhibitory activity against PR33 Providencia stuartii; format: functional
Escherichia coli [20] = assay: Compound was evaluated for inhibitory activity against EC14 Escherichia coli sensitive; format: functional
Streptococcus pyogenes [21] = assay: Compound was evaluated for inhibitory activity against C203 Streptococcus pyogenes Gp.A; No growth; format: functional, organism-based
Klebsiella pneumoniae [22] = assay: Compound was evaluated for inhibitory activity against X26 Klebsiella pneumoniae; format: functional
Haemophilus influenzae [23] = assay: Compound was evaluated for inhibitory activity against 76 Haemophilus influenzae beta-lactamase; format: functional
Enterobacter cloacae [24] = assay: Compound was evaluated for inhibitory activity against 265a Enterobacter cloacae beta-lactamase; format: functional
Streptococcus pneumoniae [25] = assay: Compound was evaluated for inhibitory activity against Park S Streptococcus pneumoniae; format: functional
Streptococcus pyogenes [26] = assay: Compound was evaluated for inhibitory activity against C203 Streptococcus pyogenes Gp.A; format: functional
Enterococcus faecalis [27] = assay: Compound was evaluated penicillin susceptible; format: functional
Streptococcus pneumoniae [28] = assay: 32 Compound was evaluated for inhibitory activity against Park S Streptococcus pneumoniae; format: functional
Serratia [29] = assay: Compound was evaluated for minimum inhibitory concentration against X99 Serratia; format: functional
Serratia [30] = assay: Compound was evaluated for minimum inhibitory concentration against SE3 Serratia; format: functional
Providencia stuartii [31] = assay: Compound was evaluated for minimum inhibitory concentration against PR33 Providencia stuartii; format: functional
Salmonella [32] = assay: Compound was evaluated for minimum inhibitory concentration against X514 Salmonella; format: functional
Morganella morganii [33] = assay: Compound was evaluated for minimum inhibitory concentration against PR15 Morganella morganii; format: functional
Citrobacter [34] = assay: Compound was evaluated for minimum inhibitory concentration against CF17 Citrobacter; format: functional
Providencia rettgeri [35] = assay: Compound was evaluated for minimum inhibitory concentration against C24 Providencia rettgeri; format: functional
Acinetobacter [36] = assay: Compound was evaluated for minimum inhibitory concentration against AC12 Acinetobacter; format: functional

SMILES: Nc1ccc([C@@H](N)C(=O)N[C@@H]2C(=O)N3C(C(=O)O)=C(C(F)(F)F)CC[C@H]23)cc1
- MIC (Klebsiella aerogenes [1]): 8 µM (≈ 3.19 µg/mL)
- MIC (Providencia rettgeri [2]): 16 µM (≈ 6.37 µg/mL)
- MIC (Haemophilus influenzae [3]): 1 µM (≈ 0.398 µg/mL)
- MIC (Staphylococcus aureus [4]): 2 µM (≈ 0.797 µg/mL)
- MIC (Klebsiella pneumoniae [5]): 16 µM (≈ 6.37 µg/mL)
- MIC (Staphylococcus aureus [6]): 64 µM (≈ 25.5 µg/mL)
- MIC (Serratia [7]): 16 µM (≈ 6.37 µg/mL)
- MIC (Salmonella [8]): 0.25 µM (≈ 0.0996 µg/mL)
- MIC (Enterococcus faecalis [9]): 16 µM (≈ 6.37 µg/mL)
- MIC (Klebsiella aerogenes [10]): 4 µM (≈ 1.59 µg/mL)
- MIC (Streptococcus pneumoniae [11]): No growth
- MIC (Morganella morganii [12]): 8 µM (≈ 3.19 µg/mL)
- MIC (Citrobacter [13]): 16 µM (≈ 6.37 µg/mL)
- MIC (Escherichia coli [14]): 1 µM (≈ 0.398 µg/mL)
- MIC (Enterobacter cloacae [15]): 16 µM (≈ 6.37 µg/mL)
- MIC (Acinetobacter [16]): 64 µM (≈ 25.5 µg/mL)
- MIC (Staphylococcus aureus [17]): 64 µM (≈ 25.5 µg/mL)
- MIC (Serratia [18]): 32 µM (≈ 12.7 µg/mL)
- MIC (Providencia stuartii [19]): 32 µM (≈ 12.7 µg/mL)
- MIC (Escherichia coli [20]): 0.5 µM (≈ 0.199 µg/mL)
- MIC (Streptococcus pyogenes [21]): No growth
- MIC (Klebsiella pneumoniae [22]): 0.5 µM (≈ 0.199 µg/mL)
- MIC (Haemophilus influenzae [23]): 1 µM (≈ 0.398 µg/mL)
- MIC (Enterobacter cloacae [24]): 32 µM (≈ 12.7 µg/mL)

SMILES: CCS(=O)(=O)Nc1cccc([C@@H](N)C(=O)N[C@@H]2C(=O)N3C(C(=O)O)=C(C(F)(F)F)CC[C@H]23)c1
- MIC (Klebsiella aerogenes [1]): 16 µM (≈ 7.85 µg/mL)
- MIC (Streptococcus pneumoniae [25]): 0.13 µM (≈ 0.0638 µg/mL)
- MIC (Streptococcus pyogenes [26]): 0.06 µM (≈ 0.0294 µg/mL)
- MIC (Providencia rettgeri [2]): 32 µM (≈ 15.7 µg/mL)
- MIC (Haemophilus influenzae [3]): 1 µM (≈ 0.49 µg/mL)
- MIC (Staphylococcus aureus [4]): 4 µM (≈ 1.96 µg/mL)
- MIC (Klebsiella pneumoniae [5]): 32 µM (≈ 15.7 µg/mL)
- MIC (Enterococcus faecalis [27]): 32 µM (≈ 15.7 µg/mL)
- MIC (Staphylococcus aureus [6]): 32 µM (≈ 15.7 µg/mL)
- MIC (Serratia [7]): 64 µM (≈ 31.4 µg/mL)
- MIC (Salmonella [8]): 1 µM (≈ 0.49 µg/mL)
- MIC (Klebsiella aerogenes [10]): 16 µM (≈ 7.85 µg/mL)
- MIC (Morganella morganii [12]): 16 µM (≈ 7.85 µg/mL)
- MIC (Citrobacter [13]): 32 µM (≈ 15.7 µg/mL)
- MIC (Escherichia coli [14]): 1 µM (≈ 0.49 µg/mL)
- MIC (Enterobacter cloacae [15]): 32 µM (≈ 15.7 µg/mL)
- MIC (Acinetobacter [16]): 64 µM (≈ 31.4 µg/mL)
- MIC (Staphylococcus aureus [17]): 32 µM (≈ 15.7 µg/mL)
- MIC (Serratia [18]): 128 µM (≈ 62.8 µg/mL)
- MIC (Providencia stuartii [19]): 16 µM (≈ 7.85 µg/mL)
- MIC (Escherichia coli [20]): 1 µM (≈ 0.49 µg/mL)
- MIC (Klebsiella pneumoniae [22]): 0.25 µM (≈ 0.123 µg/mL)
- MIC (Haemophilus influenzae [23]): 4 µM (≈ 1.96 µg/mL)
- MIC (Enterobacter cloacae [24]): 32 µM (≈ 15.7 µg/mL)

SMILES: N[C@@H](C(=O)N[C@@H]1C(=O)N2C(C(=O)O)=C(C(F)(F)F)CC[C@H]12)c1cccc(F)c1
- MIC (Klebsiella aerogenes [1]): 16 µM (≈ 6.42 µg/mL)
- MIC (Streptococcus pyogenes [26]): 0.06 µM (≈ 0.0241 µg/mL)
- MIC (Providencia rettgeri [2]): 16 µM (≈ 6.42 µg/mL)
- MIC (Haemophilus influenzae [3]): 2 µM (≈ 0.803 µg/mL)
- MIC (Staphylococcus aureus [4]): 2 µM (≈ 0.803 µg/mL)
- MIC (Klebsiella pneumoniae [5]): 16 µM (≈ 6.42 µg/mL)
- MIC (Staphylococcus aureus [6]): 32 µM (≈ 12.8 µg/mL)
- MIC (Serratia [7]): 32 µM (≈ 12.8 µg/mL)
- MIC (Salmonella [8]): 2 µM (≈ 0.803 µg/mL)
- MIC (Enterococcus faecalis [9]): 32 µM (≈ 12.8 µg/mL)
- MIC (Klebsiella aerogenes [10]): 8 µM (≈ 3.21 µg/mL)
- MIC (Morganella morganii [12]): 32 µM (≈ 12.8 µg/mL)
- MIC (Citrobacter [13]): 16 µM (≈ 6.42 µg/mL)
- MIC (Escherichia coli [14]): 2 µM (≈ 0.803 µg/mL)
- MIC (Enterobacter cloacae [15]): 16 µM (≈ 6.42 µg/mL)
- MIC (Acinetobacter [16]): 32 µM (≈ 12.8 µg/mL)
- MIC (Staphylococcus aureus [17]): 64 µM (≈ 25.7 µg/mL)
- MIC (Serratia [18]): 64 µM (≈ 25.7 µg/mL)
- MIC (Providencia stuartii [19]): 16 µM (≈ 6.42 µg/mL)
- MIC (Escherichia coli [20]): 4 µM (≈ 1.61 µg/mL)
- MIC (Streptococcus pneumoniae [28]): 0.25 µM (≈ 0.1 µg/mL)
- MIC (Klebsiella pneumoniae [22]): 2 µM (≈ 0.803 µg/mL)
- MIC (Haemophilus influenzae [23]): 2 µM (≈ 0.803 µg/mL)
- MIC (Enterobacter cloacae [24]): 32 µM (≈ 12.8 µg/mL)

SMILES: Cc1ccc([C@@H](N)C(=O)N[C@@H]2C(=O)N3C(C(=O)O)=C(C(F)(F)F)CC[C@H]23)cc1
- MIC (Serratia [29]): 16 µM (≈ 6.36 µg/mL)
- MIC (Klebsiella aerogenes [1]): 8 µM (≈ 3.18 µg/mL)
- MIC (Streptococcus pneumoniae [25]): 0.13 µM (≈ 0.0517 µg/mL)
- MIC (Streptococcus pyogenes [26]): 0.06 µM (≈ 0.0238 µg/mL)
- MIC (Haemophilus influenzae [3]): 2 µM (≈ 0.795 µg/mL)
- MIC (Staphylococcus aureus [4]): 1 µM (≈ 0.397 µg/mL)
- MIC (Serratia [30]): 64 µM (≈ 25.4 µg/mL)
- MIC (Providencia stuartii [31]): 16 µM (≈ 6.36 µg/mL)
- MIC (Klebsiella pneumoniae [5]): 8 µM (≈ 3.18 µg/mL)
- MIC (Staphylococcus aureus [6]): 4 µM (≈ 1.59 µg/mL)
- MIC (Salmonella [32]): 4 µM (≈ 1.59 µg/mL)
- MIC (Enterococcus faecalis [9]): 8 µM (≈ 3.18 µg/mL)
- MIC (Klebsiella aerogenes [10]): 8 µM (≈ 3.18 µg/mL)
- MIC (Morganella morganii [33]): 8 µM (≈ 3.18 µg/mL)
- MIC (Citrobacter [34]): 16 µM (≈ 6.36 µg/mL)
- MIC (Escherichia coli [14]): 4 µM (≈ 1.59 µg/mL)
- MIC (Enterobacter cloacae [15]): 16 µM (≈ 6.36 µg/mL)
- MIC (Staphylococcus aureus [17]): 4 µM (≈ 1.59 µg/mL)
- MIC (Providencia rettgeri [35]): 16 µM (≈ 6.36 µg/mL)
- MIC (Escherichia coli [20]): 2 µM (≈ 0.795 µg/mL)
- MIC (Klebsiella pneumoniae [22]): 0.5 µM (≈ 0.199 µg/mL)
- MIC (Haemophilus influenzae [23]): 4 µM (≈ 1.59 µg/mL)
- MIC (Enterobacter cloacae [24]): 32 µM (≈ 12.7 µg/mL)
- MIC (Acinetobacter [36]): 16 µM (≈ 6.36 µg/mL)
